Where two headings read alike, the source gives them in different places.
Assays:
GABAA = GABAA (Homo sapiens, UniProt P14867+P18507+P47870); test: Ion Channel GABAA Blocker; type: cell-based; settings: read-out: Max response
CNR1 = CNR1 (Homo sapiens, UniProt P21554); test: cAMP CNR1 Agonist; settings: for Emax: read-out: Max response
Experimental: (§1) In vitro pharmacological profiling of compounds was done against 78 functional assays for 47 common off-targets (30) by Eurofins DiscoverX Corporation (Fremont, CA, USA) using their SAFETYscan E/IC50 ELECT service (Cat Ref 87-1003DR, Safety47 Panel Dose Response). […] Compounds were tested in a range of 10 concentrations, following a 3-fold serial dilution, starting from 10 μM. The assays were performed utilizing the PathHunter enzyme fragment complementation (EFC) technology, FLIPR®-based cellular screening assays, and KINOMEscan kinase binding assays.
(§2) cAMP Hunter cell lines were expanded from freezer stocks. Prior to testing, cells were seeded in a total volume of 20 μL into white walled 384-well microplates and incubated at 37° C. cAMP modulation was determined using the DiscoverX HitHunter cAMP XS+ assay. For Gs agonist determination, cells were incubated with sample to induce response. For Gi agonist determination, cells were incubated with sample in the presence of EC80 forskolin to induce response. For both conditions, media was aspirated from cells and replaced with 15 μL 2:1 HBSS/10 mM HEPES:cAMP XS+ Ab reagent. Intermediate dilution of sample stocks was performed to generate 4× sample in assay buffer (containing 4×EC80 forskolin in the case of antagonist determination). 5 μL of 4× sample was added to cells and incubated at 37° C. or room temperature (RT) for 30 or 60 min. Final assay vehicle concentration was 1%. For antagonist determination, cells were pre-incubated with sample followed by agonist challenge at the EC80 concentration. Media was aspirated from cells and replaced with 10 μL 1:1 HBSS/HEPES:cAMP XS+ Ab reagent. 5 μL of 4× compound was added to the cells and incubated at 37° C. or RT for 30 min. 5 μL of 4×EC80 agonist was added to the cells and incubated at 37° C. or RT for 30 or 60 min. For Gi coupled GPCRs, EC80 forskolin was included. […] Microplates were read following signal generation with a PerkinElmer Envision™ instrument for chemiluminescent signal detection. Compound activity was analyzed using CBIS data analysis suite (ChemInnovation, CA).

ADORA2A = ADORA2A (Homo sapiens, UniProt P29274); test: Calcium Flux ADORA2A Antagonist; type: cell-based; settings: for IC50: read-out: RC50, result type IC50; for Emax: read-out: Max response
Experimental: (≤0.2% DMSO concentration). Assays were performed in 1× dye loading buffer consisting of 1× Dye (DiscoverX, Calcium No Wash^PLUS kit, Catalog No. 90-0091), 1× Additive A and 2.5 mM Probenecid in HBSS/20 mM HEPES. Probenecid was prepared fresh. Prior to testing, media was aspirated from cells and replaced with 25 μL dye loading buffer. Cells were incubated for 45 min at 37° C. and then 20 min at RT. For agonist determination, 25 μL of 2× compound in HBSS/20 mM HEPES was added using a FLIPR Tetra (MDS). […] 25 μL of 2× sample was added and cells were incubated for 30 min at RT in the dark to equilibrate plate temperature. After incubation, antagonist determination was initiated by addition of 25 μL of 1× compound with 3×EC80 agonist using FLIPR. For both agonist and antagonist formats, activity was measure on a FLIPR Tetra (MDS). Calcium mobilization was monitored for 2 min with a 5 sec baseline read.
FLIPR read—Area under the curve, was calculated for the entire 2 min read.

ADRA1A = biological target: T1, ADRA1A (Homo sapiens, UniProt P35348); test: Calcium Flux ADRA1A Agonist; settings: for Emax: read-out: Max response
T1 sequence (P35348 1-466): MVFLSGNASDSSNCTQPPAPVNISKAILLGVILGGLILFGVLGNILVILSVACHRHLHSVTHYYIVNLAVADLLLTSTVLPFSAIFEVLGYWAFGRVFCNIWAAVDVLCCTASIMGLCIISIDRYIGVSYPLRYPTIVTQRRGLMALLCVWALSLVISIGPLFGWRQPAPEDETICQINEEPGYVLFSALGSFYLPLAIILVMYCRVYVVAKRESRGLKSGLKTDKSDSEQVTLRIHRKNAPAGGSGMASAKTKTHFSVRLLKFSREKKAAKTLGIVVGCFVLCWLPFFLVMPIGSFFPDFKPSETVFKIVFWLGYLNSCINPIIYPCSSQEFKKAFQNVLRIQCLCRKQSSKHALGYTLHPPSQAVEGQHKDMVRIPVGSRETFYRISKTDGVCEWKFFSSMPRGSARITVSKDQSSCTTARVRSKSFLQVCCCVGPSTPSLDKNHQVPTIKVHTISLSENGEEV
Experimental: as §1
Prior to testing, cells (10,000 cells/well) were expanded from freezer stocks and seeded into a total volume of 50 μL into black walled, clear-bottom, Poly-D-lysine coated 384-well microplates and incubated at 37° C. […] Assays were performed in 1× dye loading buffer consisting of 1× Dye (DiscoverX, Calcium No Wash^PLUS kit, Catalog No. 90-0091), 1× Additive A and 2.5 mM Probenecid in HBSS/20 mM HEPES. Probenecid was prepared fresh. Prior to testing, media was aspirated from cells and replaced with 25 μL dye loading buffer. Cells were incubated for 45 min at 37° C. and then 20 min at RT. For agonist determination, 25 μL of 2× compound in HBSS/20 mM HEPES was added using a FLIPR Tetra (MDS). For antagonist determination, cells were pre-incubated with sample followed by agonist challenge at the EC80 concentration. 25 μL of 2× sample was added and cells were incubated for 30 min at RT in the dark to equilibrate plate temperature. After incubation, antagonist determination was initiated by addition of 25 μL of 1× compound with 3×EC80 agonist using FLIPR. For both agonist and antagonist formats, activity was measure on a FLIPR Tetra (MDS). Calcium mobilization was monitored for 2 min with a 5 sec baseline read.
FLIPR read—Area under the curve, was calculated for the entire 2 min read. Compound activity was analysed using CBIS data analysis suite (ChemInnovation, CA).

INSR = biological target: T2, INSR (Homo sapiens, UniProt P06213); test: Binding (KINOMEscan) INSR Inhibitor; settings: for IC50: read-out: RC50, result type IC50; for Emax: read-out: Max response
T2 construct: purchased Eurofins DiscoverX Corporation 87-1003DR; host or cells: E. coli BL21-derived host (T7 phage) or HEK-293
Experimental: For most assays, kinase-tagged T7 phage strains were grown in parallel in 24-well blocks in an E. coli host derived from the BL21 strain. E. coli were grown to log-phase and infected with T7 phage from a frozen stock (multiplicity of infection=0.4) and incubated with shaking at 32° C. until lysis (90-150 min). The lysates were centrifuged (6,000×g) and filtered (0.2 μm) to remove cell debris. The remaining kinases were produced in HEK-293 cells and subsequently tagged with DNA for qPCR detection. Streptavidin-coated magnetic beads were treated with biotinylated small molecule ligands for 30 min at RT to generate affinity resins for kinase assays. The liganded beads were blocked with excess biotin and washed with blocking buffer (SeaBlock (Pierce), 1% BSA, 0.05% Tween 20, 1 mM DTT) to remove unbound ligand and to reduce non-specific phage binding. […] All reactions were performed in polypropylene 384-well plates in a final volume of 0.02 mL. […] The beads were then re-suspended in elution buffer (1×PBS, 0.05% Tween 20, 0.5 μM non-biotinylated affinity ligand) and incubated at RT with shaking for 30 min. The kinase concentration in the eluates was measured by qPCR.
The kinase concentration in the eluates was measured by qPCR. qPCR reactions were assembled by adding 2.5 μL of kinase eluate to 7.5 μL of qPCR master mix containing 0.15 μM amplicon primers and 0.15 μM amplicon probe. The qPCR protocol consisted of a 10 min hot start at 95° C., followed by 35 cycles of 95° C. for 15 sec, 60° C. for 1 min.
Binding constants (Kds) were calculated with a standard dose-response curve using the Hill equation: […]

AChE = biological target: T3, AChE (Homo sapiens, UniProt P22303); test: Enzymatic AChE Inhibitor; type: biochemical; settings: for IC50: read-out: RC50, result type IC50; for Emax: read-out: Max response
T3 construct: purchased R&D Systems
Experimental: Enzyme preparations were sourced from various vendors-AChE (R&D Systems), COX1 and COX2 (BPS Bioscience), MAOA (Sigma), PDE3A and PDE4D2 (Signal Chem). AChE: enzyme and test compound were pre-incubated for 15 min at RT before substrate addition. Acetylthiocholine and DTNB were added and incubated at RT for 30 min. Signal was detected by measuring absorbance at 405 nm. COX1 and COX2: enzyme stocks were diluted in assay buffer (40 mM Tris-HCl, 1×PBS, 0.5 mM Phenol, 0.01% Tween 20 and 10 nM Hematin) and allowed to equilibrate with compounds at RT for 30 min (binding incubation). Arachidonic acid (1.7 μM) and Ampliflu Red (2.5 μM) were prepared and dispended into a reaction plate. Plates were read immediately on a fluorimeter with the emission detection at 590 nm and excitation wavelength 544 nm. MAOA: enzyme and test compound were pre-incubated for 15 min at 37° C. before substrate addition. The reaction was initiated by addition of kynuramine and incubated at 37° C. for 30 min. The reaction was terminated by addition of NaOH. The amount of 4-hydroquinoline formed was determined through spectrofluorometric readout with the emission detection at 380 nm and excitation wavelength 310 nm. PDE3A and PDE4D2: enzyme and test compound were pre-incubated for 15 min at RT before substrate addition. cAMP substrate (at a concentration equal to EC80) was added and incubated at RT for 30 min. Enzyme reaction was terminated by addition of 9 mM IBMX. Signal was detected using the HitHunter® cAMP detection kit. Microplates were transferred to a PerkinElmer Envision™ instrument and read out as described for each assay. […] For enzyme activity assays, percentage inhibition was calculated using the following equation: […]

OPRD1 = OPRD1 (Homo sapiens, UniProt P41143); test: cAMP OPRD1 Antagonist; settings: for Emax: read-out: Max response
Experimental: In vitro pharmacological profiling of compounds was done against 78 functional assays for 47 common off-targets (30) by Eurofins DiscoverX Corporation (Fremont, CA, USA) using their SAFETYscan E/IC50 ELECT service (Cat Ref 87-1003DR, Safety47 Panel Dose Response). […] Compounds were tested in a range of 10 concentrations, following a 3-fold serial dilution, starting from 10 μM.
as §2

[1] = Calcium Flux ADORA2A Antagonist

T2 sequence (P06213 28-1382): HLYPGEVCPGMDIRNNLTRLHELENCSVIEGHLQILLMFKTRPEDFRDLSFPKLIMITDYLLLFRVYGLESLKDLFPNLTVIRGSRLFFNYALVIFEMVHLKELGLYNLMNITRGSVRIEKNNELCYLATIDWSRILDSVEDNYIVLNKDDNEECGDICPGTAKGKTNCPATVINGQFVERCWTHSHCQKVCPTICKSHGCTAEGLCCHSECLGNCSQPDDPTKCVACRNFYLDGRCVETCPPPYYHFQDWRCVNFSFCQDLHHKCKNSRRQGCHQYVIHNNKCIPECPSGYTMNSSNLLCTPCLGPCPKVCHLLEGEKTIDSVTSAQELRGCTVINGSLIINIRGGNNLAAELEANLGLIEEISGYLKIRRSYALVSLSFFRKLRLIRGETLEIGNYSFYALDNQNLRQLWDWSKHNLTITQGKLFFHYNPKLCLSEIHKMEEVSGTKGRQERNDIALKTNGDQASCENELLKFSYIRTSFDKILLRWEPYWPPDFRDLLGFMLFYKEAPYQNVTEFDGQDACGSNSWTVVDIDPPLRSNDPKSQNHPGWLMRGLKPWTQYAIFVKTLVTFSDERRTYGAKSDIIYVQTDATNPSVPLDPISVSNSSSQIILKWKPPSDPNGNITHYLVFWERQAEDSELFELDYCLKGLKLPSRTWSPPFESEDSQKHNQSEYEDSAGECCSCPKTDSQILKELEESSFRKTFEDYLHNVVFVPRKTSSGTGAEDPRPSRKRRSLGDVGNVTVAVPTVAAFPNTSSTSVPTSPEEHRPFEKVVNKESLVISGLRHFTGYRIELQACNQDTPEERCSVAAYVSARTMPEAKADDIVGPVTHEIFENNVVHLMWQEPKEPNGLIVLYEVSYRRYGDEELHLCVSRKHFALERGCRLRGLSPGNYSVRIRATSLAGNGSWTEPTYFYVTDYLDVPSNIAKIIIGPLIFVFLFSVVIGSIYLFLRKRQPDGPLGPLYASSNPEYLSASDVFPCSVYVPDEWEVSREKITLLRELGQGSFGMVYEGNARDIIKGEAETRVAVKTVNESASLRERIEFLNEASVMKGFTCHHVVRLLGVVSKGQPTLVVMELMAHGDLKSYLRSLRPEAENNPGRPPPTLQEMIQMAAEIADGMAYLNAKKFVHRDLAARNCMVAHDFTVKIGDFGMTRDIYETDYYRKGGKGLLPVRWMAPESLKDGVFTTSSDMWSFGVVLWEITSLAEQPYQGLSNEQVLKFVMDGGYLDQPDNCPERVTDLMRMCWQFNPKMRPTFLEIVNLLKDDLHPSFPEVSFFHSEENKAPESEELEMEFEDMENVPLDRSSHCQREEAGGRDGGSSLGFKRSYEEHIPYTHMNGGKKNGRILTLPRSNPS
T3 sequence (P22303 32-614): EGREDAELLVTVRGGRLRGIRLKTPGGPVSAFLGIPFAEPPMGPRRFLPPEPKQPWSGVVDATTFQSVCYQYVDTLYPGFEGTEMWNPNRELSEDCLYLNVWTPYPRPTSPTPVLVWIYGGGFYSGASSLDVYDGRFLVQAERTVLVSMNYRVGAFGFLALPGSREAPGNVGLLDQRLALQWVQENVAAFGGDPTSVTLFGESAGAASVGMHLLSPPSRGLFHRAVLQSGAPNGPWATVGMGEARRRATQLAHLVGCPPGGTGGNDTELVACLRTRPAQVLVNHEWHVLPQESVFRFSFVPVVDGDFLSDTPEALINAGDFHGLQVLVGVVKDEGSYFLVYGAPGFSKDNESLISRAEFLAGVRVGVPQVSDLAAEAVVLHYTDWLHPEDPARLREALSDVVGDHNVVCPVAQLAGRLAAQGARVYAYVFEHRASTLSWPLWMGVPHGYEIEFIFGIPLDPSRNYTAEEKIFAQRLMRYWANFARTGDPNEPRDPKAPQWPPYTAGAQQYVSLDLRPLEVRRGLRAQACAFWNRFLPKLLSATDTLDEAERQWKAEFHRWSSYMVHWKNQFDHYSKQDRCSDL
Chain of ADORA2A (P29274 whole entry): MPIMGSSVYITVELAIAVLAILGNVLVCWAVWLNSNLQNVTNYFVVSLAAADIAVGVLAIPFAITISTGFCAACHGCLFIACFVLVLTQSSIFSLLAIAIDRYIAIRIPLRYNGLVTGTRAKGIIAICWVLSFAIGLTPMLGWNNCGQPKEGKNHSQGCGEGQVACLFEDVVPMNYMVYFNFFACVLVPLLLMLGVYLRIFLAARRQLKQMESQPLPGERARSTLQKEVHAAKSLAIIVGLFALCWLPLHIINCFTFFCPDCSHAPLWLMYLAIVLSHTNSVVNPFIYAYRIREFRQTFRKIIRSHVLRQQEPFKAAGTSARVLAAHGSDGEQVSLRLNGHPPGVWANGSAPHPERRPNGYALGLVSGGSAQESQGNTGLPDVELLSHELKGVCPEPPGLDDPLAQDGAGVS
Chain of CNR1 (P21554 whole entry): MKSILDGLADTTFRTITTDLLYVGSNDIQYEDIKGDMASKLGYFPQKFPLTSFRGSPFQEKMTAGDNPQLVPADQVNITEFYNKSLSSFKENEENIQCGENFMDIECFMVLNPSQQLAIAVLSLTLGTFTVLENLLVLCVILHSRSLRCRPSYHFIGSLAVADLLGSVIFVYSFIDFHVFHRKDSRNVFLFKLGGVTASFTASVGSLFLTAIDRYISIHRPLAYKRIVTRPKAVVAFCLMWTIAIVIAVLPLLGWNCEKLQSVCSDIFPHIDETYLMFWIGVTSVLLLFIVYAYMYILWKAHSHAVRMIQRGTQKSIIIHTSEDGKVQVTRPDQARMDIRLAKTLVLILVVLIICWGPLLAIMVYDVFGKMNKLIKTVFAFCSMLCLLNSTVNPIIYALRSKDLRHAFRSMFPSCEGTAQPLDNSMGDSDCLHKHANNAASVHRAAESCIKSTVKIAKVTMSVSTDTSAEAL
Chain of OPRD1 (P41143 whole entry): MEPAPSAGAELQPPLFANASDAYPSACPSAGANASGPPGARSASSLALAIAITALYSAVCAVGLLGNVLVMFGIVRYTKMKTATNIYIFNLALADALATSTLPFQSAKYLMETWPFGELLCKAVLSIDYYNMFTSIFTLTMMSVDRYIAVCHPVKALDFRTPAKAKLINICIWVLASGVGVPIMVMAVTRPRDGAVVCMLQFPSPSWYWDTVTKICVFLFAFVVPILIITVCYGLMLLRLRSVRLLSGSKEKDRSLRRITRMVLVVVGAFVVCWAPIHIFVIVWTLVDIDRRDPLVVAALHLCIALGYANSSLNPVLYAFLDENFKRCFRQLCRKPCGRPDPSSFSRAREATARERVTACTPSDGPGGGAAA
Chain of GABAA (P14867 28-456): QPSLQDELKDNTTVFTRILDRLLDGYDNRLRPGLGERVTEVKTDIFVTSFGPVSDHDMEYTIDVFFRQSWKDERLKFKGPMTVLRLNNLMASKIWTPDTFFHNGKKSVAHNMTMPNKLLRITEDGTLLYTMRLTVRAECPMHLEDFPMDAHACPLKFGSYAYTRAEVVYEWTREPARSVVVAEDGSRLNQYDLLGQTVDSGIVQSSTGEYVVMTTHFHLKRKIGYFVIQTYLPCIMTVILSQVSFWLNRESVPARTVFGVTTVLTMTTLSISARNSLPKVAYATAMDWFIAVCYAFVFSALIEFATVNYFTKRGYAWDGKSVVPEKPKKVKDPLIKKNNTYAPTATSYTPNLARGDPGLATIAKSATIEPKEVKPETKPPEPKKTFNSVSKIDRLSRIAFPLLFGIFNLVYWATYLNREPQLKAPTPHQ
Chain of GABAA (P47870 26-512): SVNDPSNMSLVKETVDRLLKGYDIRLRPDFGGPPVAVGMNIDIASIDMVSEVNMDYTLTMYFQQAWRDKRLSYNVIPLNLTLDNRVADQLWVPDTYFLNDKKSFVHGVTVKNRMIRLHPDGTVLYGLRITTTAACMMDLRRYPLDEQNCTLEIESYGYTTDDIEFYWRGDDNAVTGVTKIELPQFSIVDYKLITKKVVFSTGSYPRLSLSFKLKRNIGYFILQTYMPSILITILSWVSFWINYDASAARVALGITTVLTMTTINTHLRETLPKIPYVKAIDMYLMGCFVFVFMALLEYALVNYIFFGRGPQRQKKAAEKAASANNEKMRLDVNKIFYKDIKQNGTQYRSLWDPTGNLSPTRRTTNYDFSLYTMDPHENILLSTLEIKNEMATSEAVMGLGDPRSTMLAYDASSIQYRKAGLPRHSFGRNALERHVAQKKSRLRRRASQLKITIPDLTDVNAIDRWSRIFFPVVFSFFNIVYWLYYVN
Chain of GABAA (P18507 40-475): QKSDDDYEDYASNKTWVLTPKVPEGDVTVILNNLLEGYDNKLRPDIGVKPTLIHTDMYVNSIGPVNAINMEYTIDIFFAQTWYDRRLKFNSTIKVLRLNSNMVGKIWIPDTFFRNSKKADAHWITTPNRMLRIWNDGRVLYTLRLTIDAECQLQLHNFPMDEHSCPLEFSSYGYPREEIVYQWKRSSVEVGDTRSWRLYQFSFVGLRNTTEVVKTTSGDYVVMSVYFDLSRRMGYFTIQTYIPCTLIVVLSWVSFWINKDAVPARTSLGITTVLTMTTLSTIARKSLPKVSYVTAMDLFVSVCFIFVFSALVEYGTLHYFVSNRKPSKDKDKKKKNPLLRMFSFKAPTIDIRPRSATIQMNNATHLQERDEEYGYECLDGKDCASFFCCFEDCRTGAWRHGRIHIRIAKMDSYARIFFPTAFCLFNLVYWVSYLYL

Row | Structure (SMILES) | Emax (GABAA) | EC50 (CNR1) | Emax (CNR1) | IC50 (ADORA2A; [1]) | Emax (ADORA2A) | EC50 (ADRA1A) | Emax (ADRA1A) | IC50 (INSR; Binding INSR Inhibitor) | Emax (INSR) | IC50 (AChE; Enzymatic AChE Inhibitor) | Emax (AChE) | IC50 (OPRD1) | Emax (OPRD1) | Emax (ADORA2A; [1]) | Emax (INSR; Binding INSR Inhibitor) | Emax (AChE; Enzymatic AChE Inhibitor)
1 | CC(C)(C)c1ccc(C#CC(O)c2ccccc2)cc1 (racemic) [Compound 3.3, rac-3-(4-(tert-butyl)phenyl)-1-phenylprop-2-yn-1-ol] | 8.7% | > 10 µM | 9.8% | > 10 µM | 0% | > 10 µM | 0.6% | > 10 µM | 10.3% | > 10 µM | 3.8% | > 10 µM | 5.9% | – | – | –
2 | Clc1cccc(C#Cc2n[nH]c3ncccc23)c1 [Compound 10.1, 3-((3-chlorophenyl)ethynyl)-1H-pyrazolo[3,4-b]pyridine] | 5.2% | > 10 µM | 20.1% | > 10 µM | – | > 10 µM | 0.6% | > 10 µM | – | > 10 µM | – | > 10 µM | 0% | 0% | 0% | 1.3%

From patent US20250186408A1, “TREATMENT OF PHARMACORESISTANT EPILEPSY” (Katholieke Universiteit Leuven, priority 2021, published 2025)
